{"source": "patent US20190022239A1", "about": "“NOVEL BIOMOLECULE CONJUGATES AND USES THEREFOR” (The University of Western Australia, priority 2016, published 2019)", "key": {"[1]": {"tested_on": "RIP-Tag insulinoma and hepatocellular carcinoma", "assay": "In vivo binding specificity of fluorescein-labelled TNFα-CSG and native TNFα", "parameters": "species or system mice", "conditions": "130 μg i.v., 30 min circulation", "method": "Binding specificity of TNFα-CSG to tumours in vivo was assessed by detecting fluorescein-labelled TNFα-CSG and native unconjugated TNFα following 130 μg intravenous injection (30 min circulation)."}, "[2]": {"tested_on": "macrophage cell line J774", "assay": "Bioactivity: J774 macrophages on matrigel attached with TNFα-CSG", "format": "cell-based", "conditions": "0.1 mmol on matrigel, 1 to 16 hrs", "method": "Bioactivity of TNFα-CSG was assessed in vitro, specifically by incubating macrophage cell, line, J774, on matrigel attached with TNFα-CSG (0.1 mmol)."}, "insulinoma": {"tested_on": "insulinoma", "assay": "Tumour uptake of iron oxide micelles (MRI)", "format": "in vivo, mice", "conditions": "2 μg dose daily for five days; 6 hr circulation", "method": "Reduced tumour ECM and stiffness, as well as improved perfusion was also shown to result in enhanced tumour uptake of a nano-imaging contrast agent. Specifically, insulinoma-bearing mice were treated with 2-10 μg TNFα-CSG or CSG control peptide by intravenous infection daily for five days. Following this, mice were intravenously injected with 100 μL of 1 mM iron oxide (IO) micelles (30 nm diameter). Tumours were harvested after 6 hr circulation and imaged by MRI and microscopic analysts of tissues mounted in 2% agarose. […] This accumulation was confirmed by immunostaining analysis of tissue cross sections using anti-FITC antibody."}, "[3]": {"tested_on": "4T1 breast carcinoma and RIP-Tag insulinoma", "assay": "Tumour stiffness by optical coherence tomography/micro-elastography", "format": "in vivo, mice", "conditions": "2 μg/day × 4 total injections"}, "4T1 breast carcinoma [4]": {"tested_on": "4T1 breast carcinoma", "assay": "Immune cell infiltration in 4T1 breast carcinoma (FACS)", "format": "in vivo, mice", "conditions": "2 μg daily i.v. for 5 days", "description": "Dextran coated iron oxide encapsulated with 18:0 PEG2000 PE micelle formulation and doxorabicin-micelles were made in the laboratory. 4T1 murine breast carcinoma is an orthotopic implant model by inoculating of 5×10^5 cells in die mammary fat pad of syngeneic BALB/c mice. RIP1-TagS insulinoma model (on C3H background) contains the oncogene SV40 Large T antigen (Tag; RIP, rat insulin gene promoter) that is exclusively expressed in β cells of the pancreas resulting in pancreatic tumours of neuroendocrine origin. ALB-Tag HOC (in C3H background) contains the oncogene SV40 Large T antigen (Tag) that is exclusively expressed in hepatocytes under the control of the albumin (ALB) promoter, resulting in rapid (non-metastatic) HCC tumour progression.\nMice bearing 4T1 breast carcinoma, when tumour size reached 500 mm^3, were treated with 0.5 and 2 μg TNFα-CSG or native TNFα (in 100 μL) by daily intravenous injection for 5 days. FACS quantification of CD4+ and CD8+ T cells and infiltrating macrophages (CD11b+/CD68+/F4/80+) harvested in whole tumours is presented in FIG. 5.\nAs noted in Example 2, native TNFα at 2 μg is toxic (all mice died after receiving 2 doses of 2 μg TNFα). A lower dose of native TNFα (0.5 μg) is not effective compared to 0.5 μg TNFα-CSG (FIG. 5)."}, "4T1 tumour [5]": {"tested_on": "4T1 tumour", "assay": "Tumour uptake of Evans blue dye", "format": "in vivo, mice", "conditions": "2 μg i.v. for five days; Evans blue 30 min", "method": "As a result of the reduced tumour ECM content and increased tumour vessel perfusion (Example 4), the inventors then evaluated the ability of tumours treated with TNFα-CSG to take op various reagents. Mice bearing 4T1 tumour were treated with 2 μg TNFα-CSG or CSG control peptide by intravenous injection for five days. Following this, mice were intravenously injected with 100 μL, of 0.9% Evans blue solution and allowed to circulate for 30 min. Tumours were then harvested and photographed."}, "4T1 tumour [6]": {"tested_on": "4T1 tumour", "assay": "Anti-tumorigenic effect on 4T1 tumour growth", "format": "in vivo, mice", "conditions": "2 μg, 6 injections in 2 weeks", "method": "The inventors have also discovered that TNFα-CSG has anti-tumorigenic effects, as evidenced by reduced tumour growth and reduced cell proliferation. 4T1 tumour-bearing mice were treated with 2 μg TNFα-CSG or control CSG peptide 4 days after inoculation with 5×10^5 4T1 cells. Each mouse received a total of 6 injections in 2 weeks."}, "4T1 breast tumours": {"tested_on": "4T1 breast tumours", "assay": "Secondary metastasis of 4T1 breast tumours", "format": "in vivo, mice", "conditions": "10 μg daily i.v., up to eight injections", "method": "4T1cells in blood, lung, liver and lymph nodes were harvested once the primary tumours reached 2,000 mm^3. Cell suspensions from these tissues were cultured in 6-thioguanine-containing media to select for 4T1 cells that are resistant to 6-thioguanine. Colonic metastasis of methylene blue stained cells were counted. It is known that the lung is the primary site of metastasis of breast tumours. […] Similarly, the colonic metastasis counts in liver and lymph nodes were lower in the TNFα-CSG treated group."}, "4T1 breast carcinoma [7]": {"tested_on": "4T1 breast carcinoma", "assay": "Tumour uptake of doxorubicin-micelles", "format": "in vivo, mice", "conditions": "2 μg i.v. daily for 5 days, then 100 μL of 1 mM doxorubicin-micelles", "method": "4T1 breast carcinoma-bearing mice were treated with 2 μg TNFα-CSG or CSG control, peptide by intravenous injection, daily for 5 days. Mice were then injected with 100 μL of 1 mM doxorubicin-micelles (200 nm in size) and tissues including tumours, spleen and liver were collected for analysis."}, "advanced insulinoma": {"tested_on": "advanced insulinoma", "assay": "Survival of mice bearing advanced insulinoma", "format": "in vivo", "conditions": "5 μg daily i.v. for five days at 24 weeks of age", "method": "Survival studies were conducted using mice bearing advanced insulinoma, at 24 weeks of age, treated with 5 μg TNFα-CSG or 0.8 μg CSG daily for five days by intravenous injection."}, "[8]": {"tested_on": "RIP-Tag insulinoma and 4T1 breast carcinoma", "assay": "Tumour vessel perfusion (CD31:lectin ratio)", "format": "in vivo, mice", "conditions": "2 μg/day × 5", "method": "The inventors then evaluated vessel perfusion in RIP-Tag insulinoma and 4T1. breast carcinoma from mice treated with TNFα-CSG (2 μg/day×5), as measured by CD31:lectin ratio following 10 min intravenous circulation of tomato green lectin."}, "RIP-Tag insulinoma": {"tested_on": "RIP-Tag insulinoma", "assay": "Immune cell infiltration in RIP-Tag insulinoma (immunofluorescence)", "format": "in vivo, mice", "conditions": "2 and 5 μg daily i.v. for 5 days, vs control groups", "method": "Mice bearing RIP-Tag insulinoma at 25 weeks of age were treated with 2 and 5 μg TNF60 -CSG (in 100 μL) by daily intravenous injection for 5 days. FIG. 6 presents microscopic evaluation of CD4+ and CD8+ T cells and circulatory CD11b macrophages detected by immunofluorescence staining of tissue cross sections."}}}
{"substance": "TNFα-CSG: Mature murine TNFα (SEQ ID NO:6) with C-terminal conjugated peptide CSGRRSSKC connected via a GGG linker; recombinant fusion protein", "values": [{"measurement": "binding to tumour tissue in vivo", "setting": "[1]", "result": "specifically targeted"}, {"measurement": "binding to normal tissues in vivo", "setting": "[1]; normal tissues", "result": "limited binding to normal pancreas, liver, heart, and kidney"}, {"measurement": "protease secretion by J774 cells", "setting": "[2]", "result": "secretion of MMP-2 and MMP-9"}, {"measurement": "accumulation of FITC-labelled IO micelles in tumours (MRI T2* and T2 relaxation)", "setting": "insulinoma", "result": "increased accumulation of FITC-labelled IO micelles"}, {"measurement": "loss of signal (T2 relaxation time)", "setting": "insulinoma", "result": "significantly lower"}, {"measurement": "tumour stiffness", "setting": "[3]", "result": "below 100 kPa"}, {"measurement": "tissue stiffness (stiffness >100 kPa) and stiffness variance", "setting": "[3]; frequency distribution", "result": "significantly reduced"}, {"measurement": "increase in immune cell infiltration (CD4+, CD8+ T cells, macrophages)", "setting": "4T1 breast carcinoma [4]", "result": "most effective"}, {"measurement": "tumour permeability to Evans blue dye vs control-treated tumours", "setting": "4T1 tumour [5]", "result": "more permeable to Evans blue dye"}, {"measurement": "ratio of cytotoxic T cells to immune suppressor T cells", "setting": "4T1 tumour [6]", "result": "significantly higher ratio of cytotoxic T cells to immune suppressor T cells"}, {"measurement": "tumour cell proliferation (Ki67+)", "setting": "4T1 tumour [6]", "result": "significant reduction in tumour cell proliferation"}, {"measurement": "tumour size and weight", "setting": "4T1 tumour [6]; vs control CSG peptide", "result": "significantly reduced"}, {"measurement": "hypoxia in primary tumours", "setting": "4T1 breast tumours", "result": "significantly reduced hypoxia"}, {"measurement": "lung metastasis (cell density/tissue)", "setting": "4T1 breast tumours", "result": "significantly reduced lung metastasis"}, {"measurement": "metastatic colony counts in liver and lymph nodes", "setting": "4T1 breast tumours", "result": "lower"}, {"measurement": "tumour centre", "setting": "4T1 breast tumours", "result": "enlarged tumour centres that were cleared of tumour burden"}, {"measurement": "doxorubicin (autofluorescence) in treated tumours", "setting": "4T1 breast carcinoma [7]", "result": "strong traces of doxorubicin"}, {"measurement": "survival compared to CSG-treated mice", "setting": "advanced insulinoma", "result": "significantly enhanced"}, {"measurement": "vessel width vs control treated tumours", "setting": "[8]", "result": "significantly wider"}, {"measurement": "CD31:lectin ratio", "setting": "[8]; 10 min i.v. circulation of lectin", "result": "~1"}, {"measurement": "immune cell infiltration (CD4+, CD8+ T cells, CD11b macrophages)", "setting": "RIP-Tag insulinoma", "result": "significant increase in immune cell infiltration"}]}
